Reference: publication PMC9106635, “Stimulation of the atypical chemokine receptor 3 (ACKR3) by a small-molecule agonist attenuates fibrosis in a preclinical liver but not lung injury model” (Cellular and Molecular Life Sciences: CMLS, 2022)
Like-named read-outs stand apart in the source and are kept apart here.

Key:
hACKR3 = hACKR3 (Homo sapiens, UniProt P25106); test: β-arrestin2 recruitment assay (PathHunter CHO-K1 CXCR7 β-arrestin cell line); format: cell-based; set-up: host or cells: CHO-K1 (PathHunter CXCR7 β-arrestin cell line)
Method: β-arrestin2 recruitment downstream of ACKR3 activation was analyzed using the PathHunter CHO-K1 CXCR7 β-arrestin Cell Line (93-0248C2; DiscoverX). Cells were cultured in AssayComplete™ Cell Culture Kit-107 (92-3107G; DiscoverX) at 37 °C and 5% CO2. Briefly, 20,000 cells/well were seeded in AssayComplete™ Cell Plating 2 Reagent (93-0563R2A; DiscoverX) in a white 96-well plate (100 µL/well) with clear bottom (Costar, 3610) and incubated overnight at 37 °C and 5% CO2. The next day, 10 µL/well of test compound (11 × concentrated) was added and cells were incubated for 90 min at 37 °C and 5% CO2. Compounds were tested in duplicate in a 1:4 dilution series ranging from 1000 nM to 0.06 nM final concentration. After incubation, 55 µL/well of detection reagent (PathHunter Detection kit; 93-0001; DiscoverX) was added and cells were incubated for 1 h at room temperature (RT) protected from light. Finally, luminescence was measured using a FLIPR Tetra® device (Molecular Devices, Sunnyvale, CA, USA). Four parameter non-linear curve fitting (GraphPad Prism 9.0.2) was used to determine the EC50 value for β-arrestin2 recruitment.

[1] = test system: fibrosis-related genes (liver mRNA); test: nCounter analysis of 52 fibrosis-related genes in liver RNA; format: in vivo, mouse
Method: Total RNA was prepared from snap-frozen liver tissue (the lateral and medial right lobes and the caudate lobe; Supplementary Figure S1a) or lung tissue (cranial right lobe; Supplementary Figure S1b) after homogenization on ice in TRIZol. For quantitative qRT-PCR, cDNA was made from 0.5 μg of RNA using the GoScript reverse transcription system (Promega) according to the manufacturer's protocol. QRT-PCR was performed (for 40 cycles) with the Quantstudio3 Applied Biosystems (ABI) system using Sybr green (ABI) followed by melting curve analysis. Expression was calculated using the delta threshold cycle (ΔCT) method with Gapdh as reference gene (previously validated as stable house-keeping gene in the CCl4 model and in the bleomycin model, current study, not shown). Forward (F) and reverse (R) primer sequences were (5'-3'): […]; Col1a1: [NT]; Ackr3: [NT]; Cxcr4: [NT]; Golm1: [NT]; Lgals3: [NT]; Unc93b1: [NT]; Slc15a3: [NT]; Sec24d: [NT]; Cxcl10: [NT]; and […] Data are expressed as mean ± sem. For NanoString nCounter (NanoString, USA) analysis on liver RNA, a custom-designed panel of 52 fibrosis-related probes was used (the Nanostring probe list is shown in Supplementary Table 1). 100-500 ng of total RNA was hybridized according to the manufacturer's instructions. Data were normalized by scaling to a panel of four housekeeping genes (i.e., Hprt1, Actb, Ldh, Tbp; probes are listed in Supplementary Table 1) with a coefficient of variation of < 5% between conditions used for comparison. The scaled counts were base log2-transformed and data were expressed as fold-change versus the reference condition (CCl4 + 23% HPBCD). […] The resulting P-values were corrected for multiple testing with Benjamini-Hochberg to control the false discovery rate. P < 0.05 was considered as significant.

[2] = liver d28, CCl4 + compound 18a vs. CCl4 + 23% HPBCD

hACKR3, sequence (P25106 whole entry): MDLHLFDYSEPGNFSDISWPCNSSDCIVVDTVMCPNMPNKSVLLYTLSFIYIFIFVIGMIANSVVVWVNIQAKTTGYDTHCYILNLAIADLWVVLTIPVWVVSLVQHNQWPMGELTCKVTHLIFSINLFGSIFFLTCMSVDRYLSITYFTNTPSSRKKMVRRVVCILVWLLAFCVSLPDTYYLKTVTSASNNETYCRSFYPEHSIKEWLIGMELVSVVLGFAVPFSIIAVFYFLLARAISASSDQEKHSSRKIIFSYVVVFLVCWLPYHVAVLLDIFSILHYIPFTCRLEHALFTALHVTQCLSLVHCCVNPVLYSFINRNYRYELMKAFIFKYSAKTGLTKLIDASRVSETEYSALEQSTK

- EC50 (hACKR3; conversion of 3.16 nM, read-out: EC50 β-arrestin2 recruitment expressed in ng/mL (converted)): 3.25 nM
- EC50 (hACKR3; mean ± SD of two independent experiments, read-out: EC50 β-arrestin2 recruitment): 3.16 ± 0.12 nM
- EC50 (hACKR3; taking into account 34% free fraction, read-out: EC50 corrected for free fraction in mouse plasma (target value) (converted)): 9.95 nM
Compound: CCc1ccn2ccnc2c1N1CCCN(C(CC(N)=O)C2CCN(C(=O)C3CC4CCC3O4)CC2)CC1 (stereo not shown) [compound 18a]
- number of the 52 fibrosis-related genes with significantly affected expression ([1]; CCl4-challenged livers, day 28): 8
- Fold change Adamts2 mRNA [1, 2]: 1.15
- Fold change Anxa3 mRNA [1, 2]: 0.85
- Fold change Arhgap25 mRNA [1, 2]: 0.87
- Fold change Arl11 mRNA [1, 2]: 1.09
- Fold change Arpc1b mRNA [1, 2]: 1.04
- Fold change Axl mRNA [1, 2]: 0.96
- Fold change C1qb mRNA [1, 2]: 0.92
- Fold change Capg mRNA [1, 2]: 0.85
- Fold change Ccr2 mRNA [1, 2]: 0.96
- Fold change Ccr5 mRNA [1, 2]: 0.86
- Fold change Ccr9 mRNA [1, 2]: 1.04
- Fold change Cd68 mRNA [1, 2]: 0.90
- Fold change Cd86 mRNA [1, 2]: 0.88
- Fold change Clec4n mRNA [1, 2]: 0.77
- Fold change Clec7a mRNA [1, 2]: 1.13
- Fold change Col3a1 mRNA [1, 2]: 1.40
- Fold change Col4a2 mRNA [1, 2]: 0.92
- Fold change Col5a1 mRNA [1, 2]: 0.84
- Fold change Cxcl10 mRNA [1, 2]: 0.74
- Fold change Cxcl16 mRNA [1, 2]: 1.03
- Fold change Eln mRNA [1, 2]: 1.25
- Fold change Enc1 mRNA [1, 2]: 1.09
- Fold change Fxyd5 mRNA [1, 2]: 0.96
- Fold change Gdf15 mRNA [1, 2]: 1.12
- Fold change Golm1 mRNA [1, 2]: 1.46
- Fold change Il1rn mRNA [1, 2]: 0.76
- Fold change Laptm5 mRNA [1, 2]: 0.90
- Fold change Lgals3 mRNA [1, 2]: 0.58
- Fold change Lilrb4 mRNA [1, 2]: 0.94
- Fold change Lox mRNA [1, 2]: 1.24
- Fold change Loxl2 mRNA [1, 2]: 1.01
- Fold change Ly86 mRNA [1, 2]: 1.15
- Fold change Mmp9 mRNA [1, 2]: 1.13
- Fold change Ms4a6a mRNA [1, 2]: 1.20
- Fold change Myo1f mRNA [1, 2]: 0.90
- Fold change Nckap1l mRNA [1, 2]: 0.97
- Fold change Pld4 mRNA [1, 2]: 0.93
- Fold change Plod2 mRNA [1, 2]: 1.13
- Fold change Rassf4 mRNA [1, 2]: 0.93
- Fold change Sdcbp mRNA [1, 2]: 1.08
- Fold change Sec24d mRNA [1, 2]: 1.22
- Fold change Serpine1 mRNA [1, 2]: 0.22
- Fold change Sla mRNA [1, 2]: 1.00
- Fold change Slc11a1 mRNA [1, 2]: 0.88
- Fold change Slc15a3 mRNA [1, 2]: 0.81
- Fold change Tgfb1 mRNA [1, 2]: 0.90
- Fold change Thbs2 mRNA [1, 2]: 1.03
- Fold change Timp1 mRNA [1, 2]: 1.09
- Fold change Tnc mRNA [1, 2]: 0.84
- Fold change Trem2 mRNA [1, 2]: 1.44
- Fold change Unc93b1 mRNA [1, 2]: 0.81
